Tested on: Cne H99 strain
Experiment: cell-based anti-Cryptococcus neoformans growth inhibition dose-response assay (resazurin to resorufin fluorescence)
Settings: Cne H99, concentration series 0.02-50 μM, 24 hours incubation
Method: For primary screening, a cell-based high-throughput screening (HTS) assay was developed for testing the growth inhibition of Cne H99 strain of fungus. […] After standardizing the assay in 96 well plates, it was optimized in a 384-well plate.
The compound library included known bioactives, commercial libraries, and academic molecules. For HTS, the fungal cells were grown in SD broth overnight and diluted in Sabouraud dextrose (SD) broth to an optical density at 600 nm (OD600) of 0.5. […] From this cell suspension, 20 μL of the cells was added to each well of the 384-well assay plate (black, clear bottom) containing test compounds. Plates with test compounds were prepared by adding 20 μL of RPMI-MOPS medium to each well using a liquid dispenser (Thermo Multidrop Combi), followed by transferring 1 μL of the test compounds to all wells of the 22 columns in the assay plate using a robot. Dimethyl sulfoxide (DMSO) as vehicle control or 0.8 μM AmB as positive control was added manually to the remaining two columns using a multichannel pipet. […] Additionally, the absorbance was also read at 600 nm using the plate reader (EnVision, PerkinElmer).
Concentration series (0.02-50 μM) of test compounds and equalizing volume of DMSO were dispensed, using a liquid handler (D300e, Hewlett-Packard), to the 384-well plates. Following the addition of the Cne cells, the assay plates were incubated for 24 hours, followed by a fluorescence reading of resorufin as explained for single-concentration screening. The IC50 was calculated by graphpad prism.

[1] = Cryptococcus neoformans, H99STRAIN

Structure (SMILES) | IC50 [µM] | IC50 [1] [µM]
Clc1ccc(CCNc2ncnc3sccc23)cc1 [compound 1] | 0.35 | –
c1ccc(CN2CCOc3ccccc3CCCCC3(CCNCC3)C2)cc1 [compound 2] | 0.57 | –
COc1ccc(OCc2nnc3sc(-c4ccc5c(c4)OCCO5)nn23)cc1 [compound 3] | 0.6 | –
Clc1cc(Cl)c(OCC#CI)cc1Cl [compound 6] | 1.44 | –
CC[n+]1c(/C=C/C=C2/N(C)c3ccccc3C2(C)C)sc2ccccc21 [compound 7] | – | 1.57
OCCCNc1cc(-c2ccnc(Nc3cccc(Cl)c3)n2)ccn1 [compound 8] | – | 1.66
Cc1ccc(NC(=O)Nc2ncc(-c3ccccc3)n2C)cc1Cl [compound 9] | – | 1.68
Nc1ccc2ncnc(NCCc3ccc(Oc4ccccc4)cc3)c2c1 [compound 10] | 1.83 | –
O=c1nc(SCc2ccc(F)cc2)c2c(n1Cc1ccccc1)CCC2 [compound 11] | 2.27 | –
CC(C)CCNCC(O)Cn1c2ccc(Br)cc2c2cc(Br)ccc21 (stereo not drawn) [compound 12] | 2.41 | –
O=C(O)c1ccc(-c2ccc3cc(C45CC6CC(CC(C6)C4)C5)c(O)cc3c2)cc1 [compound 13] | 2.46 | –
c1cc2c(cc1C1CCCCC1)c1c3n2CCNC3CCC1 (stereo not drawn) [compound 14] | – | 2.52
Cc1cccc2c1-c1sc(C(=O)NCCCN3CCC(Cc4ccccc4)CC3)cc1CO2 [compound 15] | – | 2.53
CNC(=O)c1ccccc1Nc1nc(Nc2ccc(N3CCOCC3)cc2OC)ncc1Cl [compound 16] | – | 2.57
Clc1ccc(C(c2ccc(Cl)cc2)[n+]2ccn(CC(OCc3ccc(Cl)cc3Cl)c3ccc(Cl)cc3Cl)c2)cc1 (stereo not drawn) [compound 17] | – | 2.63
Cc1ccc(CNc2nc(C)nc3onc(C)c23)cc1 [compound 18] | – | 2.73
Cc1nc(NCCC2=CCCCC2)c2c(C)noc2n1 [compound 19] | – | 2.92
Cc1c(Cl)cccc1N1C(=O)C=CC1=O [compound 20] | – | 2.95
O=c1nc(SCc2ccccc2)c2c(n1Cc1ccccc1)CCC2 [compound 21] | – | 3
CCOC(=O)c1sc(NC(=O)c2ccco2)c(SC#N)c1C [compound 22] | 3.11 | –
CCc1noc2nc(C)nc(NCCC3=CCCCC3)c12 [compound 23] | – | 3.14

Structure (SMILES) | IC50 [µM] | IC50 [1] [µM]
Cc1ccc(Nc2nc3nonc3nc2Nc2ccccc2F)cc1Cl [compound 24] | – | 3.15
O=C(NNc1ccccc1)c1ccncc1 [compound 25] | – | 3.1
CCn1c2ccccc2c2cc(N3C(=O)C=CC3=O)ccc21 [compound 26] | – | 3.18
CCCCc1ccc(N2C(=O)C=CC2=O)cc1 [compound 27] | – | 3.22
CCCCCCCCCCCCCCCC[N+](C)(C)CCN(Cc1ccc(OC)cc1)c1ncccn1 [compound 28] | – | 3.39
COc1cccc(-c2cc(F)ccc2[C@H]2Cc3nc(N)nc(C)c3C(=O)N2)n1 [compound 29] | – | 3.62
CC(C)CCOc1cccc(OCC(=O)Nc2ccncc2)c1 [compound 30] | – | 3.94
CCc1noc2ncnc(NCCC3=CCCCC3)c12 [compound 31] | – | 4.09
O=C1C=CC(=O)N1c1ccccc1Br [compound 32] | – | 4.61
Oc1cccnc1NC(c1ccc(Cl)cc1)c1ccc2cccnc2c1O (stereo not drawn) [compound 33] | – | 4.63
CCCCCCCCc1ccc(CCC(N)(CO)CO)cc1 [compound 35] | 4.76 | –
COC(=O)c1sc(-c2cccs2)cc1N1C(=O)C=CC1=O [compound 36] | 4.87 | –
O=C(Nc1ccc(Br)c(C(F)(F)F)c1)c1cccs1 [compound 38] | – | 4.96
Cc1ccc(S(=O)(=O)C=CC#N)cc1 [compound 39] | 5.07 | –
COC(=O)Nc1nc2cc(SC(C)C)ccc2[nH]1 [compound 40] | – | 5.08
Cc1cc(C)cc(N2C(=O)C=CC2=O)c1 [compound 42] | 5.31 | –
O=[N+]([O-])/C=C/c1ccc2c(c1)OCO2 [compound 43] | – | 5.31
Cc1ccccc1Nc1nc(Nc2ccccc2)c2cnn(C)c2n1 [compound 44] | 5.38 | –
CCC(C)c1ccc(N2C(=O)C=CC2=O)cc1 (stereo not drawn) [compound 45] | 5.49 | –
COc1ccc(OCc2nnc3sc(-c4ccc(OC)c(OC)c4)nn23)cc1 [compound 47] | – | 5.59
O=C1C=CC(=O)N1CCc1ccccc1 [compound 48] | – | 5.63

Structure (SMILES) | IC50 [µM] | IC50 [1] [µM]
c1ccc(CCNc2ncnc3ccsc23)cc1 [compound 49] | – | 5.83
CCCCCCCCCOc1ccc2[nH]cc(CCN)c2c1 [compound 50] | – | 6.04
OC(CNCc1ccc(-c2ccc(Cl)cc2Cl)o1)c1ccccc1 (stereo not drawn) [compound 51] | – | 6.09
NC(=O)c1cnc(NCCc2ccc(O)c(Cl)c2)nc1NCc1ccccc1 [compound 52] | 6.28 | –
Cc1noc2ncnc(N3CCC(c4ccccc4)C3)c12 (stereo not drawn) [compound 53] | – | 6.29
CC(C)(c1ccc(OCC2CO2)cc1)c1ccc(OCC2CO2)cc1 (stereo not drawn) [compound 54] | – | 6.42
Clc1ccc(-c2ccc(CNCc3ccc4c(c3)OCO4)o2)cc1 [compound 55] | – | 6.59
CCOC(=O)C1CCN(c2ncnc3scc(C)c23)CC1 [compound 56] | – | 6.6
COc1cc(Nc2ncc3ccn(-c4cccc(CCC#N)c4)c3n2)cc(OC)c1OC [compound 57] | – | 6.84
Cc1oc2ncnc(N3CCC(C(=O)NCc4ccc(Cl)cc4)CC3)c2c1C [compound 58] | – | 6.87
Cc1ccc(Cl)cc1N1CCN(C(=O)C2CCN(Cc3nc(-c4ccc(Cl)cc4)oc3C)CC2)CC1 [compound 59] | – | 6.93
O=C1C=CC(=O)N1c1ccc(-n2ccc(C(F)(F)F)n2)cc1 [compound 60] | – | 7.06
Cc1ccc2nc(-c3ccc(N4C(=O)CC(N5CCC(C)CC5)C4=O)cc3)sc2c1 (stereo not drawn) [compound 61] | – | 7.28
O=c1c2ccccc2oc2cc(O)cc(O)c12 [compound 62] | – | 7.59
O=C(Nc1ccc(F)c(Cl)c1)c1ccc(Nc2ccnc(-c3ccc(F)cc3)n2)cc1 [compound 63] | – | 7.65
COc1cc(CN2CCCCCCOc3ccccc3Oc3ccc(Cl)cc3NC(=O)C2)ccc1OCCN(C)C [compound 64] | – | 7.75
CC(C)(C)c1cc(C=C(C#N)C#N)cc(C(C)(C)C)c1O [compound 65] | – | 7.87
CCN(CC)CCN1COc2c(cc(Cl)c3cccnc23)C1 [compound 66] | – | 8.08
O=C1C=CC(=O)N1Cc1ccc(Cl)cc1 [compound 67] | – | 8.09
Brc1ccc(-c2ccc(CNCc3ccc4c(c3)OCO4)o2)cc1 [compound 68] | – | 8.1
CCCCOc1ccc(-c2cc3c(N4CCN(CC)CC4)nccn3n2)cc1 [compound 69] | 8.19 | –

Structure (SMILES) | IC50 [µM] | IC50 [1] [µM]
CSc1cccc(N2C(=O)C=CC2=O)c1 [compound 70] | – | 8.2
CCN(CC)c1cc(C)c2cc(NC(=O)Nc3ccc(Br)cc3)ccc2n1 [compound 71] | – | 8.38
Clc1ccc(-c2ccc(CNCc3ccccn3)o2)c(Cl)c1 [compound 72] | – | 8.46
CC(C)c1ccc2c(c1)CCC1C(C)(CN)CCCC21C (stereo not drawn) [compound 73] | – | 8.59
O=c1cc(-c2ccccc2)cc(-c2ccccc2)n1O [compound 74] | – | 8.63
COc1ccc(-c2cc(C(=O)NCCN3CCCCC3)c3cccc(-c4ccc(F)cc4)c3n2)cc1 [compound 75] | – | 8.74
Cc1ccc(Sc2cccc3nc(N)nc(N)c23)cc1 [compound 76] | – | 8.75
CC1CCN(c2nc(Cl)nc3ccccc23)CC1 [compound 77] | – | 9.01
Nc1nc2ccc(Oc3ccccc3)cc2s1 [compound 78] | – | 9.2
CN(C)CC1COc2ccccc2C1=O (stereo not drawn) [compound 79] | – | 9.27
O=C1C=CC(=O)N1c1ccccc1Oc1ccc(Cl)cc1Cl [compound 80] | – | 9.65
COc1ccc(CC2NCC(O)C2OC(C)=O)cc1 (stereo not drawn) [compound 81] | 9.69 | –
OC(CNCc1ccc(-c2cc(Cl)ccc2Cl)o1)c1ccccc1 (stereo not drawn) [compound 82] | – | 9.78
Cc1nn2c(NCCN(C)C)cc(C(C)(C)C)nc2c1-c1ccc(F)cc1 [compound 83] | – | 9.92
Brc1ccc(-c2ccc(CNCc3ccco3)o2)cc1 [compound 85] | – | 9.96
Cc1nc(NCc2ccccc2)c2c(C)noc2n1 [compound 86] | – | 9.99
CN1CCC(C(=O)N2CCC3(CCCCc4ccccc4OCCN(Cc4ccccc4)C3)CC2)CC1 [compound 87] | – | 10.1
CN1c2cc3c(cc2N=C(c2ccc(C(=O)O)cc2)c2ccccc21)C(C)(C)CCC3(C)C [compound 88] | 10.1 | –
Cc1cc(Nc2nc(NC(C)c3ccc(F)cc3)c(C#N)cc2F)n[nH]1 (stereo not drawn) [compound 89] | 10.4 | –
C(=N/n1cnnc1)/c1ccc(N(c2ccccc2)c2ccccc2)cc1 [compound 90] | 10.5 | –
CCc1ccc(-c2nc3ccccn3c2CNCc2cccc(C)c2)cc1 [compound 91] | – | 10.7

Source: patent US20260224574A1, “ANTIFUNGAL COMPOSITIONS AND METHODS OF USE THEREOF” (ARIZONA BOARD OF REGENTS ON BEHALF OF THE UNIVERSITY OF …, priority 2023, published 2026)
